Results as given in PubChem BioAssay (NCI).
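A five-concentration, 48-hour dose response in 96-well plates underlies each endpoint, interpolated linearly between surrounding concentrations. The concentration for full growth arrest is given as TGI.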

Columns and labels:
Assay in all cases: growth of human tumour cells (NCI), 48 h
SR leukemia = tested on: SR leukemia
A498 renal = tested on: A498 renal
SF-268 CNS = tested on: SF-268 CNS
NCI-H226 lung = tested on: NCI-H226 lung
SNB-19 CNS = tested on: SNB-19 CNS
HOP-92 NSCLC = tested on: HOP-92 NSCLC
SN12C renal = tested on: SN12C renal
MALME-3M melanoma = tested on: MALME-3M melanoma
SF-295 CNS = tested on: SF-295 CNS
SW-620 colon = tested on: SW-620 colon
UO-31 renal = tested on: UO-31 renal
MDA-N = tested on: MDA-N
MCF7 breast = tested on: MCF7 breast

Measured: TGI

O=C1CSC2(CC(/C=C/c3cccc(Br)c3)=NN2c2cccc(S(=O)(=O)O)c2)N1c1nc2ccccc2s1 (stereo not drawn)
> 100 µM: all assays above

Cc1nc2ccc(S(=O)(=O)Nc3ccccn3)cc2c(=O)n1NS(=O)(=O)c1ccccn1
> 100 µM: all assays above

c1ccc2c(c1)Sc1ccccc1N2CCCN1c2ccccc2Sc2ccccc21
> 100 µM: all assays above

Cc1cc(Cl)ccc1NC(=O)/C(Cc1nc2ccc(C(=O)c3ccccc3)cc2[nH]c1=O)=N/NC(=O)c1ccncc1
> 100 µM: all assays above

Cc1nc(C)c(N2CCN(C(=O)NC(CCC(=O)O)C(=O)O)CC2)c(=O)[nH]1 (stereo not drawn)
> 100 µM: all assays above

COc1ccccc1/[N+]([O-])=C/c1ccccc1OC(=S)S
35.9 µM: MDA-N
61.8 µM: HOP-92 NSCLC
> 100 µM: all other assays above
